Here are results for 20 compounds from US8173689B2 (Novartis AG, priority 2006, dated 2012).

Test [1] deals with T1, cytoplasmic domain of the human CSF-1R (Homo sapiens, UniProt P07333).
T1 construct: Recombinant protein corresponding to the cytoplasmic domain of the human CSF-1R; purchased Invitrogen Corporation, Carlsbad, Calif; PV3249
T1 sequence (P07333 539-972 limits assumed): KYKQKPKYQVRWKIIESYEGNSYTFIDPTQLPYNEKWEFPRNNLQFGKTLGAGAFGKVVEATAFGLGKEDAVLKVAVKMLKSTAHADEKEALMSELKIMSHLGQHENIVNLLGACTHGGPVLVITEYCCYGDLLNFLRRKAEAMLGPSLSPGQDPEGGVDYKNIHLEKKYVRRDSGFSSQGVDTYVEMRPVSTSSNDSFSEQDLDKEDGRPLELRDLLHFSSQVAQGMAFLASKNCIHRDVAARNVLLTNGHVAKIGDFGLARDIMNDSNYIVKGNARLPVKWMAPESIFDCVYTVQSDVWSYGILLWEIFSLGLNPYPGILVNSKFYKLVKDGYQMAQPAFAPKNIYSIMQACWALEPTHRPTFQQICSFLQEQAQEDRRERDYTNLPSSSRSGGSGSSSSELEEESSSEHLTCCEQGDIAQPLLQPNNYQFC
Description: In vitro kinase assay for colony stimulating factor-1 receptor (AlphaScreen). The settings on record: tested at about 1 μM, read-out: CSF-1R percent inhibition. The class given is biochemical. The method, boiled down:
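4 nM enzyme, 1 μM ATP; buffer 50 mM Hepes pH 7.5, 5 mM MgCl2, 10 mM MnCl2, 1.0 mM DTT, 0.1% BSA, 0.01% Tween 80. Readout: AlphaScreen, PT66 acceptor/streptavidin donor, overnight.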

Test [2] has as its system MNFS60 (murine AML cells). Description: Cell viability assay in MCSF dependent MNFS60 cells (Cell Titer Glo). In kind it is cell-based. The settings on record: Mus musculus, tested at about 1 μM, read-out: M-NFS-60 CP percent inhibition. On the procedure: Cell viability was assessed by Cell Titer Glo, Promega. […] Test compounds were serially diluted (3 fold) in DMSO to 500× the final concentration. […] Final concentration of MCSF is 10 ng/ml. Cells were incubated for 72 hrs at 37° C., 5% CO2. After the incubation 100 μl Cell Titer Glo is added to each well to determine viable cells. The assay was performed according to the manufacturer's instruction (Promega Corporation, Madison, Wis. USA). Each experimental condition was performed in triplicate. Raw data was imported in Abase and EC50s calculated with XL-fit data analysis software.
A general note: ATP-based viability assays read luminescence as a measure of living cells.

The target of a further test is T2, kinase domain of cKIT (Homo sapiens, UniProt P10721).
T2 construct: The kinase domain of cKIT was assayed in 50 mM Hepes; purchased Upstate 14-559
T2 sequence (P10721 589-937 limits assumed): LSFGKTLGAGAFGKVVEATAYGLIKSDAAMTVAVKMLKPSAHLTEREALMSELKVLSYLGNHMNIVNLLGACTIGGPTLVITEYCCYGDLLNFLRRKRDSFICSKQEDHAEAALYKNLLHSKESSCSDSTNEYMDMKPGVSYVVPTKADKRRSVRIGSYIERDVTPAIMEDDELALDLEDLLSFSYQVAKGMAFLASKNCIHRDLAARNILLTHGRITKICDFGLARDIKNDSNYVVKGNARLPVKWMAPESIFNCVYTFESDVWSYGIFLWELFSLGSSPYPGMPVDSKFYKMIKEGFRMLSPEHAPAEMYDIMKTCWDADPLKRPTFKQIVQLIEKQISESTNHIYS
As to the kind of experiment: Inhibition of cKIT kinase signaling in an in vitro biochemical assay (alphascreen). The settings on record: tested at about 1 μM, read-out: cKit percent inhibition. (In general: Alpha assays give light when donor and acceptor beads are brought close together.)

For the next test, the target named is T3, kinase domain of PDGFRβ (Homo sapiens, UniProt P09619).
T3 construct: The kinase domain of PDGFRβ was assayed in 50 mM Hepes; purchased Invitrogen P3082
T3 sequence (P09619 600-962 limits assumed): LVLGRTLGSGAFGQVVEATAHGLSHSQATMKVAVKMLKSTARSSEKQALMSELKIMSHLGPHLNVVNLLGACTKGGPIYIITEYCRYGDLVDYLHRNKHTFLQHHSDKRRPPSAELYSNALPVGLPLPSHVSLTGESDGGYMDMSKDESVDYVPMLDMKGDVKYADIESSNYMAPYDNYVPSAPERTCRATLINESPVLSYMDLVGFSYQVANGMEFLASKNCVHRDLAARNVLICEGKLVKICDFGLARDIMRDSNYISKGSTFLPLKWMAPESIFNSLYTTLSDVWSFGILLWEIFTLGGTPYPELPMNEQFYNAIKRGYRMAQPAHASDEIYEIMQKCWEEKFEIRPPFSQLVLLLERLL
As to the kind of experiment: Inhibition of PDGFRb kinase signaling in an in vitro biochemical assay (alphascreen). The note with it: tested at about 1 μM, read-out: PDGFRβ percent inhibition.

SMILES strings stand for the structures. Like-named read-outs stand apart in the source and are kept apart here.

`O[C@@H]1CCCC[C@H]1Nc1nc2ccc(Oc3ccnc(N4CCOCC4)c3)cc2s1` [Cmpd 175, (1R,2R)-2-(6-(2-morpholinopyridin-4-yloxy)benzo[d]thiazol-2-ylamino)cyclohexanol]: the inhibition (usually the relative decrease from the control value, in per cent) at 1 µM was determined as 100% in test [1] (compounds of Table 3), 17% in test [2] (compounds of Table 3), 11% at kinase domain of cKIT (compounds of Table 3) and 1% at kinase domain of PDGFRβ (compounds of Table 3).

`CNC(=O)c1cc(Oc2ccc3nc(Nc4ccc(Br)cc4)oc3c2)ccn1` [Compound 1, 4-[2-(4-Bromo-phenylamino)-benzooxazol-6-yloxy]-pyridine-2-carboxylic acid methylamide]: the inhibition at 1 µM in test [1] was 99%; in test [2] (MNFS60 cells), 21%.

For `CNC(=O)c1cc(Oc2ccc3nc(Nc4ccccc4N4CCOCC4)oc3c2)ccn1` [Compound 3, 4-[2-(2-Morpholin-4-yl-phenylamino)-benzooxazol-6-yloxy]-pyridin-2-carboxylic acid methylamide], the inhibition at 1 µM in test [1] was determined as 96%; in test [2] (MNFS60 cells), 0%.

As for `CNC(=O)c1cc(Oc2ccc3nc(N[C@H](CO)Cc4ccccc4)oc3c2)ccn1` [Compound 8], the inhibition at 1 µM was determined as 95% in test [1] (compounds of Table 3), 0% in test [2] (compounds of Table 3), 99% on kinase domain of cKIT (compounds of Table 3) and 31% at kinase domain of PDGFRβ (compounds of Table 3).

Turning to `CNC(=O)c1cc(Oc2ccc3nc(Nc4ccccc4OC)oc3c2)ccn1` [Compound 11, 4-[2-(2-Methoxy-phenylamino)-benzooxazol-6-yloxy]-pyridin-2-carboxylic acid methylamide], the results for the inhibition at 1 µM (in test [1]; in test [2] (MNFS60 cells); on kinase domain of PDGFRβ) were 99%, 26% and 96%, respectively.

As to `CCOc1ccccc1Nc1nc2ccc(Oc3ccnc(C(=O)NC)c3)cc2o1` [Compound 12, 4-[2-(2-Ethoxy-phenylamino)-benzooxazol-6-yloxy]-pyridin-2-carboxylic acid methylamide], the inhibition at 1 µM in test [1] was found to be 99%; in test [2] (MNFS60 cells), 30%; on kinase domain of PDGFRβ it was 12%.

For the compound `CC[C@@H](Nc1nc2ccc(Oc3ccnc(C(=O)NC)c3)cc2o1)c1ccccc1` [Compound 19, 4-[2-((R)-1-Phenyl-propyl-amino)-benzooxazol-6-yloxy]-pyridine-2-carboxylic acid methylamide], the inhibition at 1 µM in test [1] was determined as 100%; in test [2] (MNFS60 cells) it was 36%; at kinase domain of PDGFRβ it was 2%.

Consider `CNC(=O)c1cc(Oc2ccc3nc(NC4CCC4)oc3c2)ccn1` [Compound 22, 4-(2-Cyclobutylamino-benzooxazol-6-yloxy)-pyridine-2-carboxylic acid methylamide], for which the inhibition at 1 µM stood at 100% in test [1] (compounds of Table 3); 21% in test [1]; 36% in test [2] (compounds of Table 3); 6% on kinase domain of cKIT (compounds of Table 3); 21% at kinase domain of PDGFRβ (compounds of Table 3); 0% on kinase domain of PDGFRβ.

For the compound `CNC(=O)c1cc(Oc2ccc3nc(NC4CCCCC4)oc3c2)ccn1` [Compound 24, 4-(2-Cyclohexylamino-benzooxazol-6-yloxy)-pyridine-2-carboxylic acid methylamide], the results for the inhibition at 1 µM (in test [1]; in test [2] (MNFS60 cells); on kinase domain of PDGFRβ) were 99%, 12% and 20%, respectively.

Consider `CNC(=O)c1cc(Oc2ccc3nc(Nc4ccccc4)oc3c2)ccn1` [Compound 26, 4-(2-Phenylamino-benzooxazol-6-yloxy)-pyridine-2-carboxylic acid methylamide], for which the figures for the inhibition at 1 µM (in test [1]; in test [2] (MNFS60 cells); at kinase domain of PDGFRβ) were 98%, 24% and 100%, respectively.

For `CC(=O)Nc1cc(Oc2ccc3nc(NC4CCCCC4)oc3c2)ccn1` [Compound 29, N-[4-(2-Cyclohexylamino-benzooxazol-6-yloxy)-pyridin-2-yl]-acetamide], the inhibition at 1 µM in test [1] was 99%; in test [2] (MNFS60 cells) it was 0%; on kinase domain of PDGFRβ, 51%.

In the case of `CNC(=O)c1cc(Oc2ccc3nc(NCc4ccccn4)oc3c2)ccn1` [Compound 40, 4-{2-[(Pyridin-2-ylmethyl)-amino]-benzooxazol-6-yloxy}-pyridine-2-carboxylic acid methylamide], the inhibition at 1 µM was 99% in test [1], 0% in test [2] (MNFS60 cells) and 6% at kinase domain of PDGFRβ.

Consider `CNC(=O)c1cc(Oc2ccc3nc(Nc4ccccc4-c4cnco4)oc3c2)ccn1` [Compound 46, 4-[2-(2-Oxazol-5-yl-phenylamino)-benzooxazol-6-yloxy]-pyridine-2-carboxylic acid methylamide], for which the inhibition at 1 µM in test [1] was 94%; in test [2] (MNFS60 cells) it was 1%; at kinase domain of PDGFRβ it was 15%.

Take `CNC(=O)c1cc(Oc2ccc3nc(Nc4ccccc4CCN4CCOCC4)oc3c2)ccn1` [Compound 48, 4-{2-[2-(2-Morpholin-4-yl-ethyl)-phenylamino]-benzo-oxazol-6-yloxy}-pyridine-2-carboxylic acid methylamide]: the figures for the inhibition at 1 µM (in test [1]; in test [2] (MNFS60 cells); on kinase domain of PDGFRβ) were 84%, 0% and 0%, respectively.

`CNC(=O)c1cc(Oc2ccc3nc(NCc4c(F)cccc4F)oc3c2)ccn1` [Compound 87, 4-[2-(2,6-Difluoro-benzylamino)-benzooxazol-6-yloxy]-pyridine-2-carboxylic acid methylamide]: the inhibition at 1 µM in test [1] came out at 99%; in test [2] (MNFS60 cells) it was 21%; on kinase domain of cKIT, 42%.

As to `CNC(=O)c1cc(Oc2ccc3nc(NCc4ccc(OC)c(OC)c4)oc3c2)ccn1` [Compound 90, 4-[2-(3,4-Dimethoxy-benzyl-amino)-benzooxazol-6-yloxy]-pyridine-2-carboxylic acid methylamide], the figures for the inhibition at 1 µM (in test [1]; in test [2] (MNFS60 cells); at kinase domain of cKIT) were 99%, 18% and 22%, respectively.

`CNC(=O)c1cc(Oc2ccc3nc(NCc4ccc(OC)cc4OC)oc3c2)ccn1` [Compound 92, 4-[2-(2,4-Dimethoxy-benzyl-amino)-benzooxazol-6-yloxy]-pyridine-2-carboxylic acid methylamide]: the figures for the inhibition at 1 µM (in test [1]; in test [2] (MNFS60 cells); at kinase domain of cKIT) were 99%, 17% and 98%, respectively.

As for `CNC(=O)c1cc(Oc2ccc3nc(Nc4cccc5c4OCCO5)oc3c2)ccn1` [Compound 94, 4-[2-(2,3-Dihydro-benzo-[1,4]dioxin-5-ylamino)-benzooxazol-6-yloxy]-pyridine-2-carboxylic acid methylamide], the inhibition at 1 µM in test [1] worked out at 99%; in test [2] (MNFS60 cells), 28%; at kinase domain of cKIT, 14%.

With `Cn1cc(-c2cc(Oc3ccc4nc(NC5CCCCCC5)sc4c3)ccn2)cn1` [Example 364, N-cycloheptyl-6-(2-(1-methyl-1H-pyrazol-4-yl)pyridin-4-yloxy)benzo[d]thiazol-2-amine], the inhibition at 1 µM (in test [1]; at kinase domain of cKIT; on kinase domain of PDGFRβ) was 100% throughout.

On to `CNC(=O)c1cc(Oc2cc3sc(NCC4CCCCC4)nc3cc2F)ccn1` [Example 379, 4-(2-(cyclohexylmethylamino)-5-fluorobenzo[d]thiazol-6-yloxy)-N-methylpicolinamide], for which the values for the inhibition at 1 µM (in test [1]; on kinase domain of cKIT; at kinase domain of PDGFRβ) were 77%, 16% and 36%, respectively.
